Measurements published in US9670227B2, “Thienopyrimidine derivatives, a process for their preparation and pharmaceutical compositions containing them” (LES LABORATOIRES SERVIER, priority 2013, dated 2017).
Read-outs that look alike come from different tables or passages of the source.

Biological target: Mcl-1 protein (UniProtKB primary accession number: Q07820) (Homo sapiens, UniProt Q07820)
Assay: Inhibition of Mcl-1 by fluorescence polarisation, Method 1
Assay type: binding
Details: for IC50: read-out: IC50 (M) Mcl-1 FP
Experimental: The relative binding potency of each compound was determined via Fluorescence Polarisation (FP).
An 11 point serial dilution of each compound was prepared in DMSO and 2 μl transferred into flat bottomed, low binding, 384-well plate (final DMSO concentration 5%). 38 μl of buffer (10 mM 4-(2-hydroxyethyl)-1-piperazineethanesulfonic acid [HEPES], 150 mM NaCl, 0.05% Tween 20, pH 7.4), containing the Fluorescein labelled ligand (final concentration 1 nM) and Mcl-1 protein (final concentration 5 nM) was then added.

[1] = fluorescence polarisation test, Method 2 values are underlined in the patent (underlining not visible here)
[2] = fluorescence polarisation, Method 1, or Method 2
[3] = fluorescence polarisation test, Method 1, or Method 2 where the value is underlined (underlining not visible)

Sequence of Mcl-1 protein (Q07820 whole entry): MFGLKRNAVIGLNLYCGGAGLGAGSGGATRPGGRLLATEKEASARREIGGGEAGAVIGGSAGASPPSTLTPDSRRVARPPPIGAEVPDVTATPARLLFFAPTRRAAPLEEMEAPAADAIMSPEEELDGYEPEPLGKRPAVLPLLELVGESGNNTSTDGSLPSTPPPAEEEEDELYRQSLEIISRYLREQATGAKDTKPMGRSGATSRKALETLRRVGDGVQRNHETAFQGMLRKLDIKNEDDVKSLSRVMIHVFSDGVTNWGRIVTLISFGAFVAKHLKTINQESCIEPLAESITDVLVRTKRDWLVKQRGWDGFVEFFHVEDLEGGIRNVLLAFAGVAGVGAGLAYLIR

IC50 [1] | IC50 [2] | SMILES | further results
5.6e-09 M | – | Cc1c(-c2c(-c3ccc(F)cc3)sc3ncnc(OC(Cc4ccccc4OCc4ccnc(-c5ccccn5)n4)C(=O)O)c23)ccc(OCCN2CCN(C)CC2)c1Cl [Example 31, (2R)-2-{[(5Sa)-5-{3-chloro-2-methyl-4-[2-(4-methylpiperazin-1-yl)ethoxy]phenyl}-6-(4-fluorophenyl)thieno[2,3-d]pyrimidin-4-yl]oxy}-3-(2-{[2-(pyridin-2-yl)pyrimidin-4-yl]methoxy}phenyl)propanoic acid] | –
– | 6.58e-07 M | COc1ccccc1-c1nccc(COc2ccccc2CC(Oc2ncnc3sc(-c4ccc(OCCc5ccccc5)cc4)c(-c4ccc(OCCN5CCN(C)CC5)c(Cl)c4C)c23)C(=O)O)n1 (single isomer, unassigned) [Example 765] | –
7.3e-09 M | – | Cc1c(-c2c(-c3ccc(F)cc3)sc3ncnc(OC(Cc4ccccc4OCc4cnccn4)C(=O)O)c23)ccc(OCCN2CCN(C)CC2)c1Cl [Example 91, (2R)-2-{[(5Sa)-5-{3-chloro-2-methyl-4-[2-(4-methylpiperazin-1-yl)ethoxy]phenyl}-6-(4-fluorophenyl)thieno[2,3-d]pyrimidin-4-yl]oxy}-3-[2-(pyrazin-2-ylmethoxy)phenyl]propanoic acid] | –
5.5e-09 M | – | Cc1c(-c2c(-c3ccc(F)o3)sc3ncnc(OC(Cc4ccccc4OCc4cnccn4)C(=O)O)c23)ccc(OCCN2CCN(C)CC2)c1Cl [Example 189, (2R)-2-{[(5Sa)-5-{3-chloro-2-methyl-4-[2-(4-methylpiperazin-1-yl)ethoxy]phenyl}-6-(5-fluorofuran-2-yl)thieno[2,3-d]pyrimidin-4-yl]oxy}-3-[2-(pyrazin-2-ylmethoxy)phenyl]propanoic acid] | –
8.9e-09 M | – | Cc1c(-c2c(-c3ccc(F)o3)sc3ncnc(OC(Cc4ccccc4OCc4ccnn4C)C(=O)O)c23)ccc(OCCN2CCN(C)CC2)c1Cl [Example 180, (2R)-2-{[(5Sa)-5-{3-chloro-2-methyl-4-[2-(4-methylpiperazin-1-yl)ethoxy]phenyl}-6-(5-fluorofuran-2-yl)thieno[2,3-d]pyrimidin-4-yl]oxy}-3-{2-[(1-methyl-1H-pyrazol-5-yl)methoxy]phenyl}propanoic acid] | –
– | 3e-08 M | COc1ccccc1CC(Oc1ncnc2sc(-c3ccccc3F)c(-c3ccc(OCCN4CCN(C)CC4)c(Cl)c3C)c12)C(=O)O [Example 566, (2R)-2-{[(5Sa)-5-{3-chloro-2-methyl-4-[2-(4-methylpiperazin-1-yl)ethoxy]phenyl}-6-(2-fluorophenyl)thieno[2,3-d]pyrimidin-4-yl]oxy}-3-(2-methoxyphenyl)propanoic acid] | –
– | 2.5e-08 M | COc1ccc(-c2c(-c3ccc(F)cc3)sc3ncnc(OC(Cc4ccccc4OCc4ccnn4CCN(C)C)C(=O)O)c23)c(C)c1Cl [Example 663, (2R)-2-{[(5Sa)-5-(3-chloro-4-methoxy-2-methylphenyl)-6-(4-fluorophenyl)thieno[2,3-d]pyrimidin-4-yl]oxy}-3-[2-({1-[2-(dimethylamino)ethyl]-1H-pyrazol-5-yl}methoxy)phenyl]propanoic acid] | –
5.7e-09 M | – | COc1nccc(COc2ccccc2CC(Oc2ncnc3sc(-c4ccc(F)cc4)c(-c4ccc(OCCN5CCN(C)CC5)c(Cl)c4C)c23)C(=O)O)n1 [Example 54, (2R)-2-{[(5Sa)-5-{3-chloro-2-methyl-4-[2-(4-methylpiperazin-1-yl)ethoxy]phenyl}-6-(4-fluorophenyl)thieno[2,3-d]pyrimidin-4-yl]oxy}-3-{2-[(2-methoxypyrimidin-4-yl)methoxy]phenyl}propanoic acid] | –
– | 1.9e-08 M | Cc1c(-c2c(-c3ccccc3)sc3ncnc(OC(Cc4ccccc4)C(=O)O)c23)ccc(OCCN2CCN(C)CC2)c1Cl [Example 502, (2R)-2-[((5Sa)-5-{3-chloro-2-methyl-4-[2-(4-methylpiperazin-1-yl)ethoxy]phenyl}-6-phenylthieno[2,3-d]pyrimidin-4-yl)oxy]-3-phenylpropanoic acid] | –
9.7e-08 M | – | Cc1c(-c2c(-c3ccc(F)cc3)sc3ncnc(O[C@H](Cc4ccccc4OCc4ccnn4C)C(=O)O)c23)ccc(OCCN2CCN(C)CC2)c1Cl [Example 69, (2R)-2-{[(5Sa)-5-{3-chloro-2-methyl-4-[2-(4-methylpiperazin-1-yl)ethoxy]phenyl}-6-(4-fluorophenyl)thieno[2,3-d]pyrimidin-4-yl]oxy}-3-{2-[(1-methyl-1H-pyrazol-5-yl)methoxy]phenyl}propanoic acid] | –
– | 8.4e-08 M | COc1ccccc1CC(Oc1ncnc2sc(-c3ccc(C(=O)N(C)C)o3)c(-c3ccc(OCCN4CCN(C)CC4)c(Cl)c3C)c12)C(=O)O [Example 582, (2R)-2-[((5Sa)-5-{3-chloro-2-methyl-4-[2-(4-methylpiperazin-1-yl)ethoxy]phenyl}-6-[5-(dimethylcarbamoyl)furan-2-yl]thieno[2,3-d]pyrimidin-4-yl)oxy]-3-(2-methoxyphenyl)propanoic acid] | –

The remaining lines, values behind:

SMILES | IC50 [1] | IC50 [2] | further results
Cc1c(-c2c(C#CC3CC3)sc3ncnc(OC(Cc4ccccc4)C(=O)O)c23)ccc(OCCN2CCN(C)CC2)c1Cl [Example 520, (2R)-2-{[(5Sa)-5-{3-chloro-2-methyl-4-[2-(4-methylpiperazin-1-yl)ethoxy]phenyl}-6-(cyclopropylethynyl)thieno[2,3-d]pyrimidin-4-yl]oxy}-3-phenylpropanoic acid] | – | 4.1e-08 M | –
Cc1c(-c2c(-c3ccc(F)cc3)sc3ncnc(OC(Cc4ccccc4OCc4ccnc(-c5ccccc5F)n4)C(=O)OCOC(=O)C(C)(C)C)c23)ccc(OCCN2CCN(C)CC2)c1Cl [Example 854, {[(2R)-2-{[(5Sa)-5-{3-chloro-2-methyl-4-[2-(4-methylpiperazin-1-yl)ethoxy]phenyl}-6-(4-fluorophenyl)thieno[2,3-d]pyrimidin-4-yl]oxy}-3-(2-{[2-(2-fluorophenyl)pyrimidin-4-yl]methoxy}phenyl)propanoyl]oxy}methyl 2,2-dimethylpropanoate] | – | – | IC50 [3]: 1.72e-07 M
COCCOC(=O)C(Cc1ccccc1OCc1ccnc(-c2ccccc2OCCOC)n1)Oc1ncnc2sc(-c3ccc(F)cc3)c(-c3ccc(OCCN(C)C)c(Cl)c3C)c12 [Example 800, 2-methoxyethyl (2R)-2-{[(5Sa)-5-{3-chloro-4-[2-(dimethylamino)ethoxy]-2-methylphenyl}-6-(4-fluorophenyl)thieno[2,3-d]pyrimidin-4-yl]oxy}-3-[2-({2-[2-(2-methoxyethoxy)phenyl]pyrimidin-4-yl}methoxy)phenyl]propanoate] | – | – | IC50 [3]: 1.39e-06 M
COc1nccc(COc2ccccc2CC(Oc2ncnc3sc(-c4ccc(F)c(OCCN5CCOCC5)c4)c(-c4ccc(OC)c(Cl)c4C)c23)C(=O)O)n1 [Example 700, (2R)-2-{[(5Sa)-5-(3-chloro-4-methoxy-2-methylphenyl)-6-{4-fluoro-3-[2-(morpholin-4-yl)ethoxy]phenyl}thieno[2,3-d]pyrimidin-4-yl]oxy}-3-{2-[(2-methoxypyrimidin-4-yl)methoxy]phenyl}propanoic acid] | – | 1.2e-08 M | –
COc1ccccc1CC(Oc1ncnc2sc(-c3ccco3)c(-c3ccc(OCC[N+]4([O-])CC[N+](C)([O-])CC4)c(Cl)c3C)c12)C(=O)O [Example 297, (2R)-2-{[(5Sa)-5-{3-chloro-2-methyl-4-[2-(4-methyl-1,4-dioxidopiperazin-1-yl)ethoxy]phenyl}-6-(furan-2-yl)thieno[2,3-d]pyrimidin-4-yl]oxy}-3-(2-methoxyphenyl)propanoic acid] | 6.6e-09 M | – | –
Cc1c(-c2c(-c3ccco3)sc3ncnc(OC(C(=O)O)c4ccccc4)c23)ccc(OCCN2CCN(C)CC2)c1Cl [Example 340, (2R)-{[(5Sa)-5-{3-chloro-2-methyl-4-[2-(4-methylpiperazin-1-yl)ethoxy]phenyl}-6-(furan-2-yl)thieno[2,3-d]pyrimidin-4-yl]oxy}(phenyl)ethanoic acid] | 6.7e-07 M | – | –
COc1ccccc1CC(Oc1ncnc2sc(-c3ccco3)c(-c3ccc(OCCN4CCN(CC(F)(F)F)CC4)c(Cl)c3C)c12)C(=O)O [Example 327, (2R)-2-{[(5Sa)-5-(3-chloro-2-methyl-4-{2-[4-(2,2,2-trifluoroethyl)piperazin-1-yl]ethoxy}phenyl)-6-(furan-2-yl)thieno[2,3-d]pyrimidin-4-yl]oxy}-3-(2-methoxyphenyl)propanoic acid] | 1.5e-08 M | – | –
CCOC(=O)[C@@H](Cc1ccccc1OCC(F)(F)F)Oc1ncnc2sc(-c3ccc(F)cc3)c(-c3ccc(OCCN(C)C)c(Cl)c3C)c12 [Example 634, ethyl (2R)-2-{[(5Sa)-5-{3-chloro-4-[2-(dimethylamino)ethoxy]-2-methylphenyl}-6-(4-fluorophenyl)thieno[2,3-d]pyrimidin-4-yl]oxy}-3-[2-(2,2,2-trifluoroethoxy)phenyl]propanoate] | – | – | percentage fluorescence polarisation inhibition, Mcl-1 FP (partial inhibitors, @ 10 uM test compound): 10.7% @ 10 uM
COc1ccccc1-c1nccc(COc2ccccc2CC(Oc2ncnc3sc(C#CCCN4CCOCC4)c(-c4ccc(OCCN5CCN(C)CC5)c(Cl)c4C)c23)C(=O)O)n1 [Example 785, (2R)-2-[((5Sa)-5-{3-chloro-2-methyl-4-[2-(4-methylpiperazin-1-yl)ethoxy]phenyl}-6-[4-(morpholin-4-yl)but-1-yn-1-yl]thieno[2,3-d]pyrimidin-4-yl)oxy]-3-(2-{[2-(2-methoxyphenyl)pyrimidin-4-yl]methoxy}phenyl)propanoic acid] | – | 3.85e-09 M | –
Cc1c(-c2c(-c3ccco3)sc3ncnc(OC(Cc4ccccc4SCC(F)(F)F)C(=O)O)c23)ccc(OCCN2CCN(C)CC2)c1Cl [Example 361, (2S)-2-{[(5Ra)-5-{3-chloro-2-methyl-4-[2-(4-methylpiperazin-1-yl)ethoxy]phenyl}-6-(furan-2-yl)thieno[2,3-d]pyrimidin-4-yl]oxy}-3-{2-[(2,2,2-trifluoroethyl)sulfanyl]phenyl}propanoic acid] | 7.1e-07 M | – | –
